Test results published in ChEMBL document CHEMBL1154893, “Altaicalarins A-D, cytotoxic bisabolane sesquiterpenes from Ligularia altaica” (J Nat Prod, 2010).
≈ marks a conversion by molar mass, not a printed value.

Legend:
[1] = Cytotoxicity against human vincristine resistant KBVIN cells after 48 hrs by SRB assay
[2] = tested on: KB; experiment: Cytotoxicity against human KB cells after 48 hrs by SRB assay
[3] = tested on: MCF7; experiment: Cytotoxicity against human MCF7 cells after 48 hrs by SRB assay; conditions: MCF7, 48 h
[4] = tested on: A549; experiment: Cytotoxicity against human A549 cells after 48 hrs by SRB assay; conditions: A549, 48 h

Row | Compound | EC50 [1] | EC50 [2] | EC50 [3] | EC50 [4]
1 | COc1cc([C@@H]2c3cc4c(cc3[C@@H](O[C@@H]3O[C@@H]5CO[C@@H](C)O[C@H]5[C@H](O)[C@H]3O)[C@H]3COC(=O)[C@H]23)OCO4)cc(OC)c1O [ETOPOSIDE] | 8.8 µg/mL (≈ 15 µM) | 3.9 µg/mL (≈ 6.63 µM) | 16.4 µg/mL (≈ 27.9 µM) | 0.4 µg/mL (≈ 0.68 µM)
2 | C=C(C(CC1OC1(C)C)OC(=O)/C(C)=C\C)[C@@H]1[C@H](OC(=O)/C(C)=C\C)[C@@H]2O[C@]2(C)C(=O)[C@H]1OC(C)=O (stereo partly drawn) [ALTAICALARIN D] | 18.9 µg/mL (≈ 37.5 µM) | > 20 µg/mL | > 20 µg/mL | > 20 µg/mL
3 | C=C(C(CC=C(C)C)OC(=O)/C(C)=C\C)[C@@H]1C[C@@H]2O[C@]2(C)C(=O)[C@H]1OC(C)=O (stereo partly drawn) [ALTAICALARIN C] | 7.6 µg/mL (≈ 19.5 µM) | 10.4 µg/mL (≈ 26.6 µM) | 7.7 µg/mL (≈ 19.7 µM) | 11.4 µg/mL (≈ 29.2 µM)
4 | C=C(C(CC1OC1(C)C)OC(=O)/C(C)=C\C)[C@H]1C[C@H]2O[C@@]2(C)C[C@H]1OC(=O)/C(C)=C\C (stereo partly drawn) | 11.4 µg/mL (≈ 26.4 µM) | > 20 µg/mL | > 20 µg/mL | > 20 µg/mL
5 | C=C(c1cc(O)c(C)c(O)c1OC(C)=O)C(CC=C(C)C)OC(=O)/C(C)=C\C (stereo not drawn) [ALTAICALARIN A] | 0.9 µg/mL (≈ 2.32 µM) | 1 µg/mL (≈ 2.57 µM) | 0.8 µg/mL (≈ 2.06 µM) | 3.4 µg/mL (≈ 8.75 µM)
6 | C=C(c1ccc(C)c(O)c1O)C(CC=C(C)C)OC(=O)/C(C)=C\C (stereo not drawn) [ALTAICALARIN B] | 15.9 µg/mL (≈ 48.1 µM) | 11.8 µg/mL (≈ 35.7 µM) | 10.8 µg/mL (≈ 32.7 µM) | > 20 µg/mL
7 | C=C(C(CC(O)C(C)(C)O)OC(=O)/C(C)=C\C)[C@H]1C[C@H]2O[C@@]2(C)C(OC(=O)/C(C)=C\C)[C@H]1OC(C)=O (stereo partly drawn) | > 20 µg/mL | > 20 µg/mL | > 20 µg/mL | > 20 µg/mL
